Common to all, as to format: functional
The test system of assay [1] is Rattus norvegicus. As to the kind of experiment: Antihyperlipidemic activity in Rattus norvegicus Charles Foster (rat) trition WR-1339-induced hyperlipidemic model assessed as reduction of total triglyceride level in plasma at 200 mg/kg, po. Details: scale not given: the % may be the effect or the level left.
The test system of assay [2] is Rattus norvegicus. As to the kind of experiment: Antihyperlipidemic activity in Rattus norvegicus Charles Foster (rat) trition WR-1339-induced hyperlipidemic model assessed as reduction of total cholesterol level in plasma at 200 mg/kg, po. Details: scale not given: the % may be the effect or the level left.
The nature of assay [3]: Antioxidant activity assessed as hydroxyl radical scavenging activity at 200 ug/ml.
Assay [4] has as its system Rattus norvegicus. As to the kind of experiment: Antihyperlipidemic activity in Rattus norvegicus Charles Foster (rat) trition WR-1339-induced hyperlipidemic model assessed as reduction of total phospholipid level in plasma at 200 mg/kg, po. Details: scale not given: the % may be the effect or the level left.
Assay [5] can be described thus: Antioxidant activity assessed as inhibition of xanthine-xanthine oxidase generated superoxide anion radical production at 100 ug/ml after 30 min by NBT reduction assay.
A short description of assay [6]: Antioxidant activity assessed as hydroxyl radical scavenging activity at 100 ug/ml.
Assay [7] can be described thus: Antioxidant activity assessed as inhibition of xanthine-xanthine oxidase generated superoxide anion radical production at 200 ug/ml after 30 min by NBT reduction assay.

For `O.O=C1CC(c2ccc(O)cc2)Oc2cc(O)cc(O)c21` (centres undefined) [NARINGENIN HYDRATE], the Activity in the assay on Rattus norvegicus [1] was 26%; with Rattus norvegicus [2], 27%; in assay [3], 38%; with Rattus norvegicus [4], 27%; in assay [6] it was 26%. For the same compound, the inhibition was 19% in assay [5] and 34% in assay [7].

With `OC[C@@H](O)[C@@H](O)[C@H](O)[C@H](O)CO`, in assay [3], the Activity is -48%.

In the case of `C/C=C1\C(=O)C[C@H]2[C@@H]3CCC4=CC(=O)CC[C@]4(C)[C@H]3CC[C@]12C` [GUGGULSTERONE], the Activity with Rattus norvegicus [1] came out at 36%; with Rattus norvegicus [2], 35%; with Rattus norvegicus [4] it was 35%.

With `C[C@@H]1O[C@@H](OC[C@H]2O[C@@H](Oc3c(-c4ccc(O)c(O)c4)oc4cc(O)cc(O)c4c3=O)[C@H](O)[C@@H](O)[C@@H]2O)[C@H](O)[C@H](O)[C@H]1O` [RUTIN], the Activity in the assay on Rattus norvegicus [1] is 11%; with Rattus norvegicus [2], 8%; in assay [3], 32%; in the assay on Rattus norvegicus [4], 10%; in assay [6], 21%. Besides, the inhibition is 18% in assay [5] and 35% in assay [7].

Regarding `O=c1c(O)c(-c2cc(O)c(O)c(O)c2)oc2cc(O)cc(O)c12` [MYRICETIN], the Activity was 24% in the assay with Rattus norvegicus [1]; 24% with Rattus norvegicus [2]; 53% in assay [3]; 25% with Rattus norvegicus [4]; -36% in assay [6]. Further, in assay [5], the inhibition turned out to be 27%.

One may read the inhibition as the change of the read-out against control, counted positive when it falls.

The values are drawn from ChEMBL document CHEMBL3046443, “Lipid lowering and antioxidant activity of flavones in triton treated hyperlipidemic rats” (2011).
